{"source": "patent US20030199699A1", "about": "“3-(4,5-Dihydroisoxaxol-5-yl)benzoylcyclohexenones and the use thereof as herbicides” (priority 2000, published 2003)", "key": {"[1]": {"test_system": "black nightshade", "assay": "greenhouse herbicidal test, pre-emergence", "type": "in vivo, Solanum nigrum", "conditions": "125 or 62.5 g/ha", "text": "(§1) The culture containers used were plastic flower pots containing loamy sand with approximately 3.0% of humus as substrate. The seeds of the test plant were sown separately for each species.\n(§2) For the pre-emergence treatment, the active ingredients, which were suspended or emulsified in water, were applied directly after sowing by means of finely distributing nozzles. The containers were irrigated gently to promote germination and growth and subsequently covered with transparent plastic hoods until the plants had rooted. This cover caused uniform germination of the test plants unless this was adversely affected by the active ingredients.\n(§3) Depending on the species, the plants were kept at temperatures of from 10 to 25° C. or from 20 to 35° C. The test period extended over 2 to 4 weeks. During this time, the plants were tended, and their response to the individual treatments was evaluated.\n(§4) Evaluation was carried out using a scale of from 0 to 100. 100 means no emergence of the plants, or complete destruction of at least the aerial parts, and 0 means no damage or normal course of growth.\n(§5) The plants used in the greenhouse experiments belonged to the following species: […]"}, "[2]": {"test_system": "hairy fingergrass", "assay": "greenhouse herbicidal test, pre-emergence", "type": "in vivo, Digitaria sanguinalis", "conditions": "125 or 62.5 g/ha", "text": "as §1, §2, §3, §4, §5"}, "[3]": {"test_system": "redroot pigweed", "assay": "greenhouse herbicidal test, pre-emergence", "type": "in vivo, Amaranthus retroflexus", "conditions": "125 or 62.5 g/ha", "text": "as §1, §2, §3, §4, §5"}, "[4]": {"test_system": "lambsquarters", "assay": "greenhouse herbicidal test, pre-emergence", "type": "in vivo, Chenopodium album", "conditions": "125 or 62.5 g/ha", "text": "as §1, §2, §3, §4, §5"}}}
{"smiles": "CC1=NOC(c2c(S(C)(=O)=O)ccc(C(=O)C3=C(O)CCCC3=O)c2C)C1", "note": "(centres unmarked) [Compound 2.5, 2-[2-Methyl-3-(3-methyl-4,5-dihydroisoxazol-5-yl)-4-methylsulfonylbenzoyl]-1-hydroxycyclohex-1-en-3-one]", "values": [{"measurement": "melting point", "value": "135 to 140", "unit": "°C"}, {"measurement": "herbicidal action against black nightshade", "setting": "[1]", "value": "highly efficiently"}, {"measurement": "herbicidal action against hairy fingergrass", "setting": "[2]", "value": "highly efficiently"}, {"measurement": "herbicidal action against redroot pigweed", "setting": "[3]", "value": "highly efficiently"}, {"measurement": "herbicidal action against lambsquarters", "setting": "[4]", "value": "highly efficiently"}]}
